Molecular target: T1, GBA2 (Homo sapiens, UniProt Q9HCG7)
T1 sequence (Q9HCG7 1-927): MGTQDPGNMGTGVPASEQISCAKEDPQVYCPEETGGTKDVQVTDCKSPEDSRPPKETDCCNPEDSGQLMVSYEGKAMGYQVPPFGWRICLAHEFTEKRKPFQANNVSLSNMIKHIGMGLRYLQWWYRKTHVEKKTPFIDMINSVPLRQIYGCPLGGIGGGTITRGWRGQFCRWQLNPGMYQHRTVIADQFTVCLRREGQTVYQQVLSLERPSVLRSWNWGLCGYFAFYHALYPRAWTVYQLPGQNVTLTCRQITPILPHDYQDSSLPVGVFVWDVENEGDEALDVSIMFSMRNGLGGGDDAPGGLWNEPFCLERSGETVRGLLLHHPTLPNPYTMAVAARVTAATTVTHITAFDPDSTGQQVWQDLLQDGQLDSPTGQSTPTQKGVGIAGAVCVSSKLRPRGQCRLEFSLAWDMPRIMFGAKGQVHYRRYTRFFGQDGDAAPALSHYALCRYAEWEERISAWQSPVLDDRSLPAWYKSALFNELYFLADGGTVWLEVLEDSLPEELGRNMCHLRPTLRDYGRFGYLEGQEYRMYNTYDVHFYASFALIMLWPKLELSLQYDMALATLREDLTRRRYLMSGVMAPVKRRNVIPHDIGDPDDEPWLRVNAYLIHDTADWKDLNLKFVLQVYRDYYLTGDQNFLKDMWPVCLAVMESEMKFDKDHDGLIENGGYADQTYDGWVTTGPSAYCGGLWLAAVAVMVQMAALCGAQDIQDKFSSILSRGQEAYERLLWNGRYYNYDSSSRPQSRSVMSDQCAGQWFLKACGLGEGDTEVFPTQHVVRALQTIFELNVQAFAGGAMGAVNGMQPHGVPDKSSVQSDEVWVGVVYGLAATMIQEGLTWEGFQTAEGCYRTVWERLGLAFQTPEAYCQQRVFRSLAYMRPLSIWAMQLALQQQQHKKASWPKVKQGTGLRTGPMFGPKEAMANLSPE
Assay: Determination of IC50 values for inhibition of GBA2 in cell lysate
Assay type: biochemical
Set-up: host or cells: HEK293T (lentiviral transduction, puromycin selection); used as cellular homogenate
Conditions: not given
How it was run: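 Homogenate of HEK293T cells stably overexpressing human GBA2 (0.083 mg/mL final), pretreated with 20 μM GCase inhibitor, preincubated 5 min at 37 °C with compound, then reacted 20 min with 250 μM 4-methylumbelliferyl-β-D-glucopyranoside at pH 5.5 (citrate-phosphate, 1% C10E6). Fluorescence read at 365/450 nm after alkaline stop; IC50 from log-inhibitor curve fit.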

Structure (SMILES)	IC50 [nM]
C[C@@H]1[C@@H](O)[C@H](O)[C@@H](O)CN1CCc1c(F)cccc1F [Example 48, (2R,3R,4R,5S)-1-(2,6-difluorophenethyl)-2-methylpiperidine-3,4,5-triol]	< 100
O[C@H]1[C@H](O)[C@@H](O)CN(CCc2ccccc2F)[C@@H]1CF [Example 149, (2S,3R,4R,5S)-2-(fluoromethyl)-1-(2-fluorophenethyl)piperidine-3,4,5-triol]	100 to 1000
CCCCOc1cc(F)c(CCN2C[C@H](O)[C@@H](O)[C@H](O)[C@@H]2CF)c(F)c1 [Example 160, (2R,3R,4R,5S)-1-(4-butoxy-2,6-difluorophenethyl)-2-(fluoromethyl)piperidine-3,4,5-triol]	100 to 1000
C[C@@H]1[C@@H](O)[C@H](O)[C@@H](O)CN1CCc1cc(Cl)ccc1F [Example 47, (2R,3R,4R,5S)-1-(5-chloro-2-fluorophenethyl)-2-methylpiperidine-3,4,5-triol]	< 100
C[C@@H]1[C@@H](O)[C@H](O)[C@@H](O)CN1CCc1ccc(OC2CCCOC2)cc1 (stereo partly drawn) [Example 62, (2R,3R,4R,5S)-2-methyl-1-(4-((tetrahydro-2H-pyran-3-yl)oxy)phenethyl)piperidine-3,4,5-triol]	< 100

Same assay, conditions: cellular homogenate of HEK293T cells overexpressing human GBA2, 250 μM 4-methylumbelliferone-β-D glucopyranoside, pH 5.5, 37° C., GCase inhibitor present; read-out: GBA2 IC50

Structure (SMILES)	IC50 [nM]
CC(C)C(=O)N1CCC(CN2C[C@H](O)[C@@H](O)[C@H](O)[C@H]2C)CC1 [Example 92, 2-methyl-1-(4-(((2R,3R,4R,5S)-3,4,5-trihydroxy-2-methylpiperidin-1-yl)methyl)piperidin-1-yl)propan-1-one]	1000 to 25000
C[C@@H]1[C@@H](O)[C@H](O)[C@@H](O)CN1CC1CCCCC1 [Example 1, (2R,3R,4R,5S)-1-(cyclohexylmethyl)-2-methylpiperidine-3,4,5-triol]	100 to 1000
C[C@@H]1[C@@H](O)[C@H](O)[C@@H](O)CN1C[C@H]1CCN(c2cccnc2)C1 [Example 122, (2R,3R,4R,5S)-2-methyl-1-(((R)-1-(pyridin-3-yl)pyrrolidin-3-yl)methyl)piperidine-3,4,5-triol]	1000 to 25000
C[C@@H]1[C@@H](O)[C@H](O)[C@@H](O)CN1C[C@H](C)c1ccccc1 [Example 66, (2R,3R,4R,5S)-2-methyl-1-((R)-2-phenylpropyl)piperidine-3,4,5-triol]	100 to 1000
C[C@@H]1[C@@H](O)[C@H](O)[C@@H](O)CN1CC1CN([C@H]2CCCC[C@H]2C(F)(F)F)C1 [Example 112, (2R,3R,4R,5S)-2-methyl-1-((1-((1S,2R)-2-(trifluoromethyl)cyclohexyl)azetidin-3-yl)methyl)piperidine-3,4,5-triol]	1000 to 25000
C[C@@H]1[C@@H](O)[C@H](O)[C@@H](O)CN1CC1CCN(C(=O)C2CCC2)CC1 [Example 99, cyclobutyl(4-(((2R,3R,4R,5S)-3,4,5-trihydroxy-2-methylpiperidin-1-yl)methyl)piperidin-1-yl)methanone]	100 to 1000
CCCC(=O)N1CCC(CN2C[C@H](O)[C@@H](O)[C@H](O)[C@H]2C)CC1 [Example 94, 1-(4-(((2R,3R,4R,5S)-3,4,5-trihydroxy-2-methylpiperidin-1-yl)methyl)piperidin-1-yl)butan-1-one]	1000 to 25000
C[C@@H]1[C@@H](O)[C@H](O)[C@@H](O)CN1CC1CCN(C(=O)C2CC2)CC1 [Example 98, cyclopropyl(4-(((2R,3R,4R,5S)-3,4,5-trihydroxy-2-methylpiperidin-1-yl)methyl)piperidin-1-yl)methanone]	1000 to 25000
C[C@@H]1[C@@H](O)[C@H](O)[C@@H](O)CN1CC1CCN(C(=O)CC2CCCC2)CC1 [Example 97, 2-cyclopentyl-1-(4-(((2R,3R,4R,5S)-3,4,5-trihydroxy-2-methylpiperidin-1-yl)methyl)piperidin-1-yl)ethanone]	100 to 1000
C[C@@H]1[C@@H](O)[C@H](O)[C@@H](O)CN1CC1CCN(c2ccccc2)CC1 [Example 82, (2R,3R,4R,5S)-2-methyl-1-((1-phenylpiperidin-4-yl)methyl)piperidine-3,4,5-triol]	100 to 1000

Other lines, results leading:

IC50 [nM]	Structure (SMILES)
100 to 1000	C[C@@H]1[C@@H](O)[C@H](O)[C@@H](O)CN1CC1(F)CCN(c2ccccc2)CC1 [Example 88, (2R,3R,4R,5S)-1-((4-fluoro-1-phenylpiperidin-4-yl)methyl)-2-methylpiperidine-3,4,5-triol]
100 to 1000	C[C@H](CN1C[C@H](O)[C@@H](O)[C@H](O)[C@H]1C)c1ccccc1 [Example 67, (2R,3R,4R,5S)-2-methyl-1-((S)-2-phenylpropyl)piperidine-3,4,5-triol]
100 to 1000	Cc1ccncc1N1CC[C@H](CN2C[C@H](O)[C@@H](O)[C@H](O)[C@H]2C)C1 [Example 123, (2R,3R,4R,5S)-2-methyl-1-(((R)-1-(4-methylpyridin-3-yl)pyrrolidin-3-yl)methyl)piperidine-3,4,5-triol]
< 100	C[C@@H]1[C@@H](O)[C@H](O)[C@@H](O)CN1CC1CCC(c2ccccc2)CC1 (stereo partly drawn) [Example 22, (2R,3R,4R,5S)-2-methyl-1-((4-phenylcyclohexyl)methyl)piperidine-3,4,5-triol]
< 100	C[C@@H]1[C@@H](O)[C@H](O)[C@@H](O)CN1CCc1c(F)cc(-c2ccccc2)cc1F [Example 69, (2R,3R,4R,5S)-1-(2-(3,5-difluoro-[1,1′-biphenyl]-4-yl)ethyl)-2-methylpiperidine-3,4,5-triol]
< 100	C[C@@H]1[C@@H](O)[C@H](O)[C@@H](O)CN1CC[C@H]1CC[C@H](C(F)(F)F)CC1 [Example 32, (2R,3R,4R,5S)-2-methyl-1-(2-((1r,4R)-4-(trifluoromethyl)cyclohexyl)ethyl)piperidine-3,4,5-triol]
< 100	C[C@@H]1[C@@H](O)[C@H](O)[C@@H](O)CN1CC1CCN(C(=O)C2CCC(C(F)(F)F)CC2)CC1 (stereo partly drawn) [Example 105, (4-(trifluoromethyl)cyclohexyl)(4-(((2R,3R,4R,5S)-3,4,5-trihydroxy-2-methylpiperidin-1-yl)methyl)piperidin-1-yl)methanone]
< 100	C[C@@H]1[C@@H](O)[C@H](O)[C@@H](O)CN1CCCc1ccsc1 [Example 81, (2R,3R,4R,5S)-2-methyl-1-(3-(thiophen-3-yl)propyl)piperidine-3,4,5-triol]
< 100	C[C@@H]1[C@@H](O)[C@H](O)[C@@H](O)CN1C[C@@H]1CCN(c2cnccc2C(F)(F)F)C1 [Example 133, (2R,3R,4R,5S)-2-methyl-1-(((S)-1-(4-(trifluoromethyl)pyridin-3-yl)pyrrolidin-3-yl)methyl)piperidine-3,4,5-triol]
< 100	C[C@@H]1[C@@H](O)[C@H](O)[C@@H](O)CN1C[C@H]1CC[C@H](C(C)(C)C)CC1 [Example 10, (2R,3R,4R,5S)-1-(((1r,4R)-4-(tert-butyl)cyclohexyl)methyl)-2-methylpiperidine-3,4,5-triol]
< 100	C[C@@H]1[C@@H](O)[C@H](O)[C@@H](O)CN1CCCC1CCCCC1 [Example 34, (2R,3R,4R,5S)-1-(3-cyclohexylpropyl)-2-methylpiperidine-3,4,5-triol]
< 100	C[C@@H]1[C@@H](O)[C@H](O)[C@@H](O)CN1CC1CCC2(CCCC2)CC1 [Example 25, (2R,3R,4R,5S)-2-methyl-1-(spiro[4.5]decan-8-ylmethyl)piperidine-3,4,5-triol]
< 100	C[C@@H]1[C@@H](O)[C@H](O)[C@@H](O)CN1CCCc1cccs1 [Example 80, (2R,3R,4R,5S)-2-methyl-1-(3-(thiophen-2-yl)propyl)piperidine-3,4,5-triol]
< 100	C[C@@H]1[C@@H](O)[C@H](O)[C@@H](O)CN1C[C@H]1CCN(c2cncnc2C(F)(F)F)C1 [Example 127, (2R,3R,4R,5S)-2-methyl-1-(((R)-1-(4-(trifluoromethyl)pyrimidin-5-yl)pyrrolidin-3-yl)methyl)piperidine-3,4,5-triol]
< 100	C[C@@H]1[C@@H](O)[C@H](O)[C@@H](O)CN1C[C@H]1CCN(c2ccsc2)C1 [Example 128, (2R,3R,4R,5S)-2-methyl-1-(((R)-1-(thiophen-3-yl)pyrrolidin-3-yl)methyl)piperidine-3,4,5-triol]
< 100	C[C@@H]1[C@@H](O)[C@H](O)[C@@H](O)CN1CC1CCN(C(=O)[C@H]2CC[C@@H](C(C)(C)C)CC2)CC1 [Example 102, ((1s,4S)-4-(tert-butyl)cyclohexyl)(4-(((2R,3R,4R,5S)-3,4,5-trihydroxy-2-methylpiperidin-1-yl)methyl)piperidin-1-yl)methanone]

— patent publication US12612380B2, “Non-lysosomal glucosylceramidase inhibitors and uses thereof” (ALECTOS THERAPEUTICS INC., priority 2019, dated 2026)
